The structures appear in SMILES notation.

The values below come from patent publication US20080076751A1, “Azetidinone Derivatives and Methods of Use Thereof” (priority 2006, published 2008).

The first experiment deals with T1, human NPC1L1 (Homo sapiens, UniProt Q9UHC9).
T1 construct: expressed in transfected cells; host or cells: HEK-293 (geneticin selection)
T1 sequence (Q9UHC9 22-1359): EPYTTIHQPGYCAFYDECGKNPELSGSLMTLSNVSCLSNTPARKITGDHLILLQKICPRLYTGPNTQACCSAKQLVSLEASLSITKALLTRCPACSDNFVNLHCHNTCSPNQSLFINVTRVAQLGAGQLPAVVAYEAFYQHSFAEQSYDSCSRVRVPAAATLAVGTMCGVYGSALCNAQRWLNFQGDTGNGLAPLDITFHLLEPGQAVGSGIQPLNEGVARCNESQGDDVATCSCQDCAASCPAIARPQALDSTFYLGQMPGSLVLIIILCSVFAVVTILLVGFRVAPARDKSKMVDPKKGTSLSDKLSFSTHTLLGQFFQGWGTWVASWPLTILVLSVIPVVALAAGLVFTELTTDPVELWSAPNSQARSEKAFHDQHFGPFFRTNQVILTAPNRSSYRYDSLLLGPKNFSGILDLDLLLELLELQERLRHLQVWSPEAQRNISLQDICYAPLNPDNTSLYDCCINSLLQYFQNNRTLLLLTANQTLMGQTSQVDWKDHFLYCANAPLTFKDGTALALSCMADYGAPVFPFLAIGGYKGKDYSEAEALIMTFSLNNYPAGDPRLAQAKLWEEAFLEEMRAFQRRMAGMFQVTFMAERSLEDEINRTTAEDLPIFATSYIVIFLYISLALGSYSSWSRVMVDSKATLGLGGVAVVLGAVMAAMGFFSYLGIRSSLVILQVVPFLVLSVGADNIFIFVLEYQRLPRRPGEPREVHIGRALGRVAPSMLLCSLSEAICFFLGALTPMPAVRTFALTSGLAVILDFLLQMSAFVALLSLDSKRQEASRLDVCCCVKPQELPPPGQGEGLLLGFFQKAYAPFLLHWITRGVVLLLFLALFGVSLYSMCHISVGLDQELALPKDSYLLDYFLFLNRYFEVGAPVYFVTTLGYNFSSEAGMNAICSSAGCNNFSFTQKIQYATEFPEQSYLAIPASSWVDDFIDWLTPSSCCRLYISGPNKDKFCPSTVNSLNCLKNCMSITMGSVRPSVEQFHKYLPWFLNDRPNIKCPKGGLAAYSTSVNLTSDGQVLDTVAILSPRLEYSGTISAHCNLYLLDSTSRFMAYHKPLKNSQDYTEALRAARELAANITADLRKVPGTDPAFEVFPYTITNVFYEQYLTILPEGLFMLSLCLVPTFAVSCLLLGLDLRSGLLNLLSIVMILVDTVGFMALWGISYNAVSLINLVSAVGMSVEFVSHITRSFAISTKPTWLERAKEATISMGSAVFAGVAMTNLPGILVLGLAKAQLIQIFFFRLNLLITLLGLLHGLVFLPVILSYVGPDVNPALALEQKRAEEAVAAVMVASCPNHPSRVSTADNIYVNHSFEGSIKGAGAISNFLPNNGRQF
Description: NPC1L1 binding assay (BODIPY-labeled glucuronidated ezetimibe competition), human. The note with it: HEK-293 cells expressing human NPC1L1, 4 hours at 37° C. As for the experimental part: HEK-293 cells expressing human NPC1L1 were plated into 384-well black/clear plates (BD Biosciences, Bedford Mass.) for binding experiments the following day. Cell growth media (DMEM, 10% fetal calf serum, 1 mg/mL geneticin, 100 Units/mL penicillin) was aspirated. Cell growth media ([…]) containing 250 nM BODIPY-labeled glucuronidated ezetimibe was added to each well. Cell growth media ([…]) containing the indicated concentration of compound was then added to the wells. Unlabeled glucuronidated ezetimibe ([…]) was used to determine nonspecific binding. The binding reaction was allowed to proceed for 4 hours at 37° C. Subsequently the cell growth media was aspirated and the cells washed once with PBS. The remaining fluorescent labeled glucuronidated ezetimibe bound to the cells was quantified using a FlexStation plate reader (Molecular Devices, Sunnyvale Calif.) to measure fluorescence intensity. Ki values were determined from competition binding curves (n=4 for each point) using Prism and Activity Base software.
`O=C(NC1CCCC1)N1CCC2(CC1)C(=O)N(c1ccccc1)C2c1ccccc1` (stereo not drawn) had a Ki of 31.2 µM. Take `O=C(NCc1cccc(F)c1)N1CCC2(CC1)C(=O)N(c1ccccc1)C2c1ccccc1` (stereo not drawn): the affinity corresponds to a Ki of 26 µM. On the same count and under the same terms, in the case of `O=C(Nc1ccccc1Cl)N1CCC2(CC1)C(=O)N(c1ccccc1)C2c1ccccc1` (stereo not drawn) it was 8.64 µM; in that of `O=C(NCc1ccccc1Cl)N1CCC2(CC1)C(=O)N(c1ccccc1)C2c1ccccc1` (stereo not drawn), 17.6 µM. Still for that read-out and setting: in the case of `O=C(NC1CCCCC1)N1CCC2(CC1)C(=O)N(c1ccccc1)C2c1ccccc1` (stereo not drawn) it was 19.7 µM.

The target in the next experiment is T2, human-SP9215 (GPR119) (Homo sapiens, UniProt Q8TDV5).
T2 construct: expressed in transfected cells
T2 sequence (Q8TDV5 1-335): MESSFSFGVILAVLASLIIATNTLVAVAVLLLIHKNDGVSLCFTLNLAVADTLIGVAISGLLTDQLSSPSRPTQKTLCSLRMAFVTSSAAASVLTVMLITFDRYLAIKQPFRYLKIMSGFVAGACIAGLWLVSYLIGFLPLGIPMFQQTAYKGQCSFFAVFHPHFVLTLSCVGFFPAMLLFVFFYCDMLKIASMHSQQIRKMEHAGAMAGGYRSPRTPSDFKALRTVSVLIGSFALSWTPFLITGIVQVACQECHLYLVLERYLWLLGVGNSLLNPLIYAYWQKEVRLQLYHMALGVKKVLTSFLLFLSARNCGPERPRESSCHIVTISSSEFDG
Briefly: GPR119 screening assay (LANCE cAMP, HEK 293 Human clone 3). It counts as cell-based. The conditions noted are these: HEK 293 Human clone 3, LANCE cAMP; read-out: GPR119 cAMP IC5O. How it is done: • +100 mg BSA (MP Biomedicals faction V, #103703)=0.1% • +500 μL 1M HEPES (Cellgro #25-060-Cl)=5 mM • +75 μL RO-20 (Sigma B8279; 20 mM stock in DMSO stored in aliquots at −20° C.)=15 μM • (made fresh daily) B84 (N-[4-(methylsulfonyl)phenyl]-5-nitro-6-[4-(phenylthio)-1-piperidinyl]-4-pyrimidinamine, see WO 2004/065380): A 10 mM stock solution of the test compound in DMSO was prepared, aliquoted and stored at −20° C. For Totals—Dilute 1:33.3 in DMSO then 1:50 in Stimulation Buffer=6 μM in 2% DMSO (=3 μM B84 and 1% DMSO final). For Dose Response Curve -3 μL stock+7 μL DMSO+490 μL Stim Buffer=60 μM in 2% DMSO (=30 μM B84 and 1% DMSO final). (made fresh daily). Cell Line Human clone 3: HEK 293 cells stable transfected with human-SP9215 (GPR119)/pcDNA3.1 and also stable for pCRELuc, Stratagene. Cells are maintained in DMEM containing 10% FBS (Invitrogen #02-4006Dk, lot #1272302, heat inactivated), 1×MEM, 1× Pen/Strep, 0.1 mg/mL Hygromycin B, and 0.5 mg/mL G418. Cells are split 1:8 twice per week. cAMP Kit: LANCE™ cAMP 384 kit, Perkin Elmer #AD0263 Compound Dilutions • 1. Add DMSO to vials containing compounds to provide a 1 mg/mL solution. • 2. Dilute compounds to 60 μM in Stimulation buffer. Make ½ log dilutions into stimulation buffer containing 2% DMSO using the epMotion robot. 10 point dose response curve 1 nM to 30 μM. • 3. Compounds are run in quadruplicate, 2 separate dilutions for each, sets 1 and 1a. Assay Procedure • 1. The afternoon before the assay, replace the media in the flask of Human clone 3 cells with Optimem. (Gibco # 11058-021) NOTE: cells should be in culture 6-8 days. • 2. Next morning, pipet the cells gently off the flask using HBSS (at room temperature). • 3. Pellet the cells (1300 rpm, 7 minutes, room temperature) and resuspend in Stimulation Buffer at 2.5×10e6/mL (=5-8,000 cell/6 μL). Add 1:100 dilution of Alexa Fluor 647-anti cAMP antibody (provided in the kit) directly to the cell suspension. • 4. Into white 384-well plates (Matrix) add 6 μL of 2×B84, cmpds or stim buffer for nsb. They all contain 2% DMSO (=1% DMSO final). • Add 6 μL of the cell suspension to the wells. Incubate 30 minutes at room temperature. • For the std curve add 6 μL cAMP std solution diluted in Stim Buffer+2% DMSO according to kit directions (1000-3 nM). Add 6 μL of 1:100 anti-cAMP dilution in Stim Buffer to std wells. • Make Detection Mix according to kit instructions and incubate 15 minutes at room temperature. • Add 12 μL Detection Mix to all the wells.
In general terms: TR-FRET usually uses a lanthanide donor and a delayed reading to cut background.
For `COC(=O)c1ccc(N2C(=O)C3(CCN(C(=O)c4ccc5c(c4)OCCCO5)CC3)C2c2ccc(Cl)cc2)cc1` (stereo not drawn), the IC50 was determined as 1 µM. In the case of `CC(C)OC(=O)N1CCC2(CC1)C(=O)N(C(c1ccccc1)c1ccccc1)C2c1ccccc1` (stereo not drawn), the IC50 worked out at 2 µM.

Consider `N#Cc1ccc(N2C(=O)C3(CCN(C(=O)c4ccc5c(c4)OCCCO5)CC3)C2c2ccc(Cl)cc2)cc1` (stereo not drawn), for which the IC50 was 2.28 µM. Same read-out and setting: then `COC(=O)c1ccc(N2C(=O)C3(CCN(C(=O)c4cc(OC)c(OC)c(OC)c4)CC3)C2c2ccc(Cl)cc2)cc1` (stereo not drawn), with 2.72 µM; and `COc1cccc(N2C(=O)C3(CCN(C(=O)c4cc(OC)c(OC)c(OC)c4)CC3)C2c2ccc(Cl)cc2)c1` (stereo not drawn), with 3.8 µM; and `O=C(c1ccc2c(c1)OCCCO2)N1CCC2(CC1)C(=O)N(c1ccc([N+](=O)O)cc1)C2c1ccc(Cl)cc1` (stereo not drawn), with 4.18 µM. Regarding `COc1cc(C(=O)N2CCC3(CC2)C(=O)N(c2ccc(F)cc2)C3c2ccc(Cl)cc2)cc(OC)c1OC` (stereo not drawn), the IC50 was 4.36 µM. The same measure, in the same setting: in the case of `COc1cc(C(=O)N2CCC3(CC2)C(=O)N(c2cccc(C(F)(F)F)c2)C3c2ccc(Cl)cc2)cc(OC)c1OC` (stereo not drawn) it was 4.4 µM. As for `O=C(c1ccc2c(c1)OCCCO2)N1CCC2(CC1)C(=O)N(c1ccc(C(F)(F)F)cc1)C2c1ccc(Cl)cc1` (stereo not drawn), the IC50 turned out to be 4.46 µM. Still for that read-out and setting: in the case of `C[C@H](NC(=O)N1CCC2(CC1)C(=O)N(c1ccc(F)cc1)C2c1ccc(F)cc1)c1ccccc1` (stereo partly drawn) it was 4.68 µM.

As usually defined, the Ki is the dissociation constant of the complex between target and ligand, obtained from inhibition or displacement. Lower therefore signals tighter binding.
